We go through two molecules from patent US20120142768A1 (BAXTER INTERNATIONAL INC., priority 2010, published 2012).

Data set [1] can be described thus: Phase solubility of amiodarone with substituted cyclodextrins. To be noted: 5% dextrose, 0.9 mM citrate buffer, pH 3.8, room temperature (FIG. 4).
Excerpt: The actual percent of drug that is complexed will vary according to the complexation equilibrium constant characterizing the complexation of a specific cyclodextrin derivative to a specific drug and to the concentrations of the cyclodextrin derivative and drug available for complexation.
Phase solubility studies can also generate information as to the required amounts of a cyclodextrin needed to solubilize a drug under different conditions such as temperature, cyclodextrin type, or solution composition.
For data set [2] the following is noted: Ravin et al. 1975, cited from earlier work.
For data set [3] the following is noted: cited from earlier work.

SMILES strings stand for the structures. Counter-ions that a name gives are not always drawn. Like-named read-outs stand apart in the source and are kept apart here.

With `CCCCc1oc2ccccc2c1C(=O)c1cc(I)c(OCCN(CC)CC)c(I)c1` [amiodarone hydrochloride], the “SBE7-β-CD required for 1.8 mg/mL amiodarone hydrochloride” value in data set [1] is given as “about 6 mg/mL”.
`CCCCc1oc2ccccc2c1C(=O)c1cc(I)c(OCCN(CC)CC)c(I)c1` [amiodarone]: the Amiodarone concentration achievable in data set [2] (25 °C) was 0.35 mg/mL; in data set [2] (40 °C) it was 0.95 mg/mL; in data set [2] (about 60 °C), more than 13 mg/mL. Also, the “Critical micellar concentration (CMC)” value in data set [3] (Ravin et al. 1975) is on record as “approximately 0.5 mg/mL”; in data set [3] (at Krafft point of ~70 °C, Benedini et al. 2010) it was 1.69 mg/mL.
